In patent US9067934B2, “Bicyclic pyridinones” (Pfizer Inc., priority 2011, dated 2015):

tested on: production of amyloid beta protein Aβ(1-42) (γ-secretase) in human WT-APP overexpressing CHO cells; experiment: Cell-Based γ-Secretase Assay with ELISA Readout; conditions: human WT-APP overexpressing CHO cells, ~24 hours at 37° C., Aβ(1-42) ELISA; footnotes: a = geometric mean of >15 determinations, b = single determination, c = geometric mean of 7-15 determinations; read-out: Aβ 42B IC50 (Geometric Mean of 2-6 Determinations)
Description: Cell-Based γ-Secretase Assay with ELISA Readout
The ability of compounds to modulate production of amyloid beta protein Aβ(1-42) was determined using human WT-APP overexpressing CHO cells. Cells were plated at 22,000 cells/100 μL well in 96 well tissue culture treated, clear plates (Falcon) in DMEM/F12 based medium and incubated for 24 hours at 37° C. Compounds for testing were diluted in 100% DMSO to achieve an eleven points, half log, dose response for IC50 determinations. Compounds were added in fresh medium to achieve 1% final DMSO. Appropriate vehicle or inhibitor controls were added into control wells individually to obtain minimum or maximum inhibition values, respectively, for the assay signal window before the plates were incubated for ˜24 hours at 37° C. This procedure produces conditioned media in each well which is tested for Aβ(1-42) levels in the ELISA detection step described next. The remaining cell cultures in each well are also tested for cell toxicity as described below.
Coating of ELISA assay plates was initiated by addition of 50 μL/well of an in-house Aβ(1-42) specific antibody at (3 μg/mL) in 0.1 M NaHCO3 (pH 9.0) into black 384-well Maxisorp® plates (Nunc) and incubated overnight at 4° C. The capture antibody was then aspirated from the ELISA assay plates and plates were washed 4×100 μL with Wash Buffer (Dulbecco's PBS, 0.05% Tween 20). 90 μL/well of Blocking Buffer (Dulbecco's PBS, 1.0% BSA (Sigma A7030)) was then added to plates. Ambient temperature incubation was allowed to proceed for a minimum of two hours. Blocking buffer was then removed and 20 μL/well Assay Buffer (Dulbecco's PBS, 1.0% BSA (Sigma A7030), 0.05% Tween 20) was then added. At this point, 40 μL (in duplicate) of experimental conditioned media (described above) were transferred into wells of the blocked ELISA plates containing the capture antibody, followed by overnight incubation at 4° C. Cell toxicity was also measured in the corresponding remaining cells after removal of the conditioned media for the Aβ(1-42) assay by a colorimetric cell proliferation assay (CellTiter 96® AQueous One Solution Cell Proliferation Assay, Promega) according to the manufacturer's instructions.
After overnight incubation of the ELISA assay plates at 4° C., unbound Aβ peptides were removed via (4×100 μL) washes with Wash Buffer. Europium (Eu) labeled (custom labeled, Perkin Elmer) Aβ(1-16) 6e10 Monoclonal Antibody (Covance #SIG-39320) was added, (50 μL/well Eu-6e10 @ 1:10,000, 20 uM EDTA) in Assay Buffer. Incubation at ambient temperature for a minimum of 2 hours was followed by (4×100 μL) washes with Wash Buffer, before 30 μL/well of Delfia Enhancement Solution (Perkin Elmer) was added. Following an one hour ambient temperature incubation, the plates were read on an EnVision plate reader (Perkin Elmer) using standard DELFIA TRF settings. Data analysis including inhibitory IC50 determination was performed using nonlinear regression fit analysis (in-house software) and the appropriate plate mean values for the maximum and minimum inhibition controls.

Going from Cc1cn(-c2ccc3n(c2=O)CCN(C(C)C(C)Oc2ccccc2S(F)(F)(F)(F)F)C3=O)cn1 (single isomer, unassigned) [Example 124, 7-(4-methyl-1H-imidazol-1-yl)-2-{3-[2-(pentafluoro-λ^6-sulfanyl)phenoxy]butan-2-yl}-3,4-dihydro-2H-pyrido[1,2-a]pyrazine-1,6-dione] to Cc1cn(-c2ccc3n(c2=O)CCN(CCOc2ccccc2C(C)(C)C)C3=O)cn1 [Example 13, 2-[2-(2-tert-butylphenoxy)ethyl]-7-(4-methyl-1H-imidazol-1-yl)-3,4-dihydro-2H-pyrido[1,2-a]pyrazine-1,6-dione], the IC50 falls from 2310 nM to 108 nM (21-fold).

Compared with Cc1cn(-c2ccc3n(c2=O)CCN(C(C)C(C)Oc2ccccc2S(F)(F)(F)(F)F)C3=O)cn1 (single isomer, unassigned) [Example 125, 7-(4-methyl-1H-imidazol-1-yl)-2-{3-[2-(pentafluoro-λ^6-sulfanyl)phenoxy]butan-2-yl}-3,4-dihydro-2H-pyrido[1,2-a]pyrazine-1,6-dione], Cc1cn(-c2ccc3n(c2=O)CCN(CCOc2ccccc2OC(F)(F)F)C3=O)cn1 [Example 15, 7-(4-methyl-1H-imidazol-1-yl)-2-{2-[2-(trifluoromethoxy)phenoxy]ethyl}-3,4-dihydro-2H-pyrido[1,2-a]pyrazine-1,6-dione] is 2.4-fold lower in IC50: 653 nM for the first, 275 nM for the second.

Going from Cc1cn(-c2ccc3n(c2=O)CCN(C(C)C(C)Oc2ccccc2S(F)(F)(F)(F)F)C3=O)cn1 (single isomer, unassigned) [Example 126, 7-(4-methyl-1H-imidazol-1-yl)-2-{3-[2-(pentafluoro-λ^6-sulfanyl)phenoxy]butan-2-yl}-3,4-dihydro-2H-pyrido[1,2-a]pyrazine-1,6-dione] to Cc1cn(-c2ccc3n(c2=O)CCN(CCOc2ccc(F)cc2C(F)(F)F)C3=O)cn1 [Example 1, 2-{2-[4-Fluoro-2-(trifluoromethyl)phenoxy]ethyl}-7-(4-methyl-1H-imidazol-1-yl)-3,4-dihydro-2H-pyrido[1,2-a]pyrazine-1,6-dione], the IC50 rises from 20.1 nM to 256 nM (13-fold).

Cc1cn(-c2ccc3n(c2=O)CCN(C(C)C(C)Oc2ccccc2S(F)(F)(F)(F)F)C3=O)cn1 (single isomer, unassigned) [Example 127, 7-(4-methyl-1H-imidazol-1-yl)-2-{3-[2-(pentafluoro-λ^6-sulfanyl)phenoxy]butan-2-yl}-3,4-dihydro-2H-pyrido[1,2-a]pyrazine-1,6-dione] and Cc1cn(-c2ccc3n(c2=O)CCN(CC(C)Oc2ccc(C(F)(F)F)cc2)C3=O)cn1 (stereo not shown) [Example 5, 7-(4-methyl-1H-imidazol-1-yl)-2-{2-[4-(trifluoromethyl)phenoxy]propyl}-3,4-dihydro-2H-pyrido[1,2-a]pyrazine-1,6-dione] are within 1.5-fold of each other in IC50: 1070 nM for the first, 996 nM for the second.

Going from Cc1ncc(-c2ccc3n(c2=O)CCN(CCOc2cccc4ccc(F)cc24)C3=O)o1 [Example 2, 2-{2-[(7-Fluoronaphthalen-1-yl)oxy]ethyl}-7-(2-methyl-1,3-oxazol-5-yl)-3,4-dihydro-2H-pyrido[1,2-a]pyrazine-1,6-dione] to COc1ccc2cccc(OCCN3CCn4c(ccc(-n5cnc(C)c5)c4=O)C3=O)c2c1 [Example 7, 2-{2-[(7-methoxy-1-naphthyl)oxy]ethyl}-7-(4-methyl-1H-imidazol-1-yl)-3,4-dihydro-2H-pyrido[1,2-a]pyrazine-1,6-dione], the IC50 falls from 434 nM to 42 nM (10-fold).

First: Cc1cn(-c2ccc3n(c2=O)CCN(CCOc2cccc4ccccc24)C3=O)cn1 [Example 3, 7-(4-methyl-1H-imidazol-1-yl)-2-[2-(1-naphthyloxy)ethyl]-3,4-dihydro-2H-pyrido[1,2-a]pyrazine-1,6-dione]
Second: Cc1cn(-c2ccc3n(c2=O)CCN(CCOc2ccc(Cl)c4ccccc24)C3=O)cn1 [Example 6, 2-{2-[(4-chloro-1-naphthyl)oxy]ethyl}-7-(4-methyl-1H-imidazol-1-yl)-3,4-dihydro-2H-pyrido[1,2-a]pyrazine-1,6-dione]
The IC50 of the first is 2.4-fold higher: 86 nM for the first, 36.5 nM for the second.

Cc1cn(-c2ccc3n(c2=O)CCN(CC(C)(C)Oc2cccc(Cl)c2Cl)C3=O)cn1 [Example 4, 2-[2-(2,3-dichlorophenoxy)-2-methylpropyl]-7-(4-methyl-1H-imidazol-1-yl)-3,4-dihydro-2H-pyrido[1,2-a]pyrazine-1,6-dione] and Cc1cn(-c2ccc3n(c2=O)CCN(CCOc2cccc(C(F)(F)F)c2Cl)C3=O)cn1 [Example 20, 2-{2-[2-chloro-3-(trifluoromethyl)phenoxy]ethyl}-7-(4-methyl-1H-imidazol-1-yl)-3,4-dihydro-2H-pyrido[1,2-a]pyrazine-1,6-dione] are within 1.5-fold of each other in IC50: 146 nM for the first, 157 nM for the second.

Compared with COc1ccc(OCCN2CCn3c(ccc(-n4cnc(C)c4)c3=O)C2=O)c2ccccc12 [Example 8, 2-{2-[(4-methoxy-1-naphthyl)oxy]ethyl}-7-(4-methyl-1H-imidazol-1-yl)-3,4-dihydro-2H-pyrido[1,2-a]pyrazine-1,6-dione], Cc1cn(-c2ccc3n(c2=O)CCN(CCOc2ccc(F)c4occc24)C3=O)cn1 [Example 11, 2-{2-[(7-fluoro-1-benzofuran-4-yl)oxy]ethyl}-7-(4-methyl-1H-imidazol-1-yl)-3,4-dihydro-2H-pyrido[1,2-a]pyrazine-1,6-dione] is 5.8-fold higher in IC50: 93 nM for the first, 536 nM for the second. The first is the more potent here.

Going from Cc1cn(-c2ccc3n(c2=O)CCN(CCOc2ccc(Cl)c4c2CCC4)C3=O)cn1 [Example 9, 2-{2-[(7-chloro-2,3-dihydro-1H-inden-4-yl)oxy]ethyl}-7-(4-methyl-1H-imidazol-1-yl)-3,4-dihydro-2H-pyrido[1,2-a]pyrazine-1,6-dione] to Cc1cn(-c2ccc3n(c2=O)CCN(CCOc2cccc4c2CCC4)C3=O)cn1 [Example 16, 2-[2-(2,3-dihydro-1H-inden-4-yloxy)ethyl]-7-(4-methyl-1H-imidazol-1-yl)-3,4-dihydro-2H-pyrido[1,2-a]pyrazine-1,6-dione], the IC50 rises from 83.9 nM to 234 nM (2.8-fold).

Cc1cn(-c2ccc3n(c2=O)CCN(CCOc2cc(Cl)cc(Cl)c2Cl)C3=O)cn1 [Example 10, 7-(4-methyl-1H-imidazol-1-yl)-2-[2-(2,3,5-trichlorophenoxy)ethyl]-3,4-dihydro-2H-pyrido[1,2-a]pyrazine-1,6-dione] and Cc1ccc(OCCN2CCn3c(ccc(-n4cnc(C)c4)c3=O)C2=O)c(Cl)c1 [Example 17, 2-[2-(2-chloro-4-methylphenoxy)ethyl]-7-(4-methyl-1H-imidazol-1-yl)-3,4-dihydro-2H-pyrido[1,2-a]pyrazine-1,6-dione] are within 1.5-fold of each other in IC50: 127 nM for the first, 153 nM for the second.

Cc1cn(-c2ccc3n(c2=O)CCN(CCOc2ccc(Cl)c(C(F)(F)F)c2)C3=O)cn1 [Example 12, 2-{2-[4-chloro-3-(trifluoromethyl)phenoxy]ethyl}-7-(4-methyl-1H-imidazol-1-yl)-3,4-dihydro-2H-pyrido[1,2-a]pyrazine-1,6-dione] and Cc1cn(-c2ccc3n(c2=O)CCN(CCOc2ccc(F)cc2C2CC2)C3=O)cn1 [Example 21, 2-[2-(2-cyclopropyl-4-fluorophenoxy)ethyl]-7-(4-methyl-1H-imidazol-1-yl)-3,4-dihydro-2H-pyrido[1,2-a]pyrazine-1,6-dione] are within 1.5-fold of each other in IC50: 196 nM for the first, 262 nM for the second.

Cc1cn(-c2ccc3n(c2=O)CCN(CCOc2cccc4c2CCCC4)C3=O)cn1 [Example 14, 7-(4-methyl-1H-imidazol-1-yl)-2-[2-(5,6,7,8-tetrahydronaphthalen-1-yloxy)ethyl]-3,4-dihydro-2H-pyrido[1,2-a]pyrazine-1,6-dione] and Cc1cn(-c2ccc3n(c2=O)CCN(CCOc2cccc(-c4ccccc4)c2)C3=O)cn1 [Example 18, 2-[2-(biphenyl-3-yloxy)ethyl]-7-(4-methyl-1H-imidazol-1-yl)-3,4-dihydro-2H-pyrido[1,2-a]pyrazine-1,6-dione] are within 1.5-fold of each other in IC50: 197 nM for the first, 151 nM for the second.

Cc1cn(-c2ccc3n(c2=O)CCN(CCOc2cccc(Oc4ccccc4)c2)C3=O)cn1 [Example 19, 7-(4-methyl-1H-imidazol-1-yl)-2-[2-(3-phenoxyphenoxy)ethyl]-3,4-dihydro-2H-pyrido[1,2-a]pyrazine-1,6-dione] was tested, and the IC50 was 203 nM.
